Experimental data from US20230242474A1, “LIPID COMPOUND AND THE COMPOSITION THEREOF” (GUANGZHOU RIBOBIO CO., LTD, priority 2020, published 2023).
Values joined by “and” are separate entries in the source; they are usually repeats but may differ in a detail not shown here. Equal values may be shown once. Read-outs that look alike come from different tables or passages of the source.

Experiments:
BALB/c mice = assay: Transfection efficiency: in vivo bioluminescence of luciferase mRNA encapsulated by different LNP; conditions: for Average fluorescence intensity, Leg (intramuscular injection) / Average fluorescence intensity, Liver (tail vein injection): 10 μg/mice; for Total photons number, Leg: intramuscular injection
Procedure: All animals were kept in adaptive feeding for more than 7 days before experiments, free to uptake food and drink water during experimental period, illumination 12/12 h alternating light and dark, room temperature was 20-26° C., humidity was 40-70%.
Experimental method: female BALB/c mice, encapsulated luciferase mRNA with different LNP by four different administrations which included subcutaneous injection (under the armpit), tail vein injection, intraperitoneal injection, intramuscular injection (the tibialis anterior muscle of mouse hind leg); 3, 6, 24, 48 h after administration, applied in vivo fluorescence imaging system (brand: Bruker, model: XTREME) for bioluminescence detection, the specific steps were as follows: substrate preparation: took appropriate amount of substrate Luciferin (brand: Promega) and added saline to make a 10 mg/ml solution, avoided light, injected 100 μl solution into each mouse intraperitoneally. […] Put the anesthetized mouse into machine, set the bioluminescence setting and took the photos, captured the photograph and then adjusted the upper and lower values of photograph, then collected data on the concentrated distribution of fluorescence (e.g., fluorescence intensity, average photons number, and total photons number) and processed data. Statistical analysis: the in vivo imaging outcome were shown in the fluorescence intensity or average of total photons number of different animal in the same tested group, which were used to judge whether the fluorescence intensity or total photon number of luciferase mRNA encapsulated by different LNP were high or low.
The fluorescence intensity and total photons number reflects the transfection efficiency of LNP, the value is higher, referring to the efficiency of delivering encapsulated substance into cell by LNP is higher.

[1] = test system: T lymphocytes secreting INFγ; assay: ELISPOT count of T lymphocytes secreting INFγ after immunization with LNP-encapsulated SARS-CoV-2 S protein mRNA; format: in vivo, BALB/c mice; conditions: S protein (1 μg) stimulation, intramuscular Day 0 and Day 14, spleens after 7 days
[2] = format: physicochemical
[3] = test system: S protein specific IgG antibody; format: in vivo, BALB/c mice; conditions: 14 days after the second immunization, LNP with S protein mRNA, FIG. 5
Wistar rats = assay: Safety evaluation of LNP: acute toxicity test in rat; format: in vivo; design: key to Histopathological result, Muscle tissue / Histopathological result, Heart / Histopathological result, Liver / Histopathological result, Kidney / Histopathological result, Spleen / Histopathological result, Thymus / Histopathological result, Lymph nodes / Histopathological result, Pancreas: ″—″ means no abnormality
Procedure: Wistar rats including 4 males and 4 females, with a weight difference of no more than 10%, were selected and randomly divided into two groups: solvent control group and tested substance group. The concentration used in the measurement was 2 mg/mL. Each animal was administered 3 times a day with the volume of each injection as 250 μl. The administration interval was 4 hours. Alternate administration to the left and right legs were performed. The total dosage level was 1.50 mg per rat, which was equivalent to 1200 times the maximum unit weight dosage level for human (assuming the maximum dosage level for human is 0.25 mg). Clinical observation was recorded as follows. Within 24 hours after administration, clinical observation was carried out every hour. Within 24-72 hours after administration, clinical observation was carried out once every 6 hours. Within 4-14 days after administration, clinical observation was carried out once a day. The symptoms of toxicity, the time when the symptoms appeared and disappeared, and the time of death (if occurred) were recorded. Body weight was recorded once a day after administration, and food intake was recorded every 2 days after administration. 14 days after the administration, all the remaining animals were weighed, then euthanized, and major organs were obtained by anatomy. Heart, liver, spleen, lung, kidney, thymus, lymph node, were weighted and relative organ weight (the organ weight/the subject weight×100%; also known as organ coefficient) was calculated. After anatomy, the heart, liver, spleen, lung, kidney, intestine, thymus, lymph node, muscle tissue at the injection site and other organs with pathological changes observed were stored in a fixation solution, and the pathology of each organ was examined by H&E staining. Lesion severity scores were given according to the table below.
Specifically, the body weight of male rats in the solvent control group continued to increase. […] The food intake per rat in the solvent control group within 24 hours was stable, within a range of 18-35 grams.

[4] = LNP with SARS-CoV-2 S protein mRNA, Table 9
[5] = lipid nanoparticle of the ionizable lipid (ionizable lipid/phospholipid/PEG lipid/structural lipid 50/10/1.5/38.5 %) with mRNA, Table 1
[6] = lipid nanoparticle of the ionizable lipid with mRNA, Table 1
[7] = H&E, day 14, 1.50 mg per rat, animals 1001 and 1101
[8] = empty LNP, 1.50 mg per rat i.m., day 14, average of male, female rat
[9] = empty LNP, 1.50 mg per rat, day 14
[10] = LNP empty vector used in the rat safety study, Table 5

CCCCCCCCCCCOC(=O)CCCCCN(CCO)CCCCCCCC(=O)OC(CCCCCCCC)CCCCCCCC [A33, reference compound]
Average fluorescence intensity, Leg (intramuscular injection) (BALB/c mice; 3 h after administration): 1065.5
Average fluorescence intensity, Liver (tail vein injection) (BALB/c mice; 3 h after administration): 2841.8
Average fluorescence intensity, Leg (intramuscular injection) (BALB/c mice; 6 h after administration): 1117.9
Average fluorescence intensity, Liver (tail vein injection) (BALB/c mice; 6 h after administration): 3144.6
Average fluorescence intensity, Leg (intramuscular injection) (BALB/c mice; 24 h after administration): 418.8
Average fluorescence intensity, Liver (tail vein injection) (BALB/c mice; 24 h after administration): 100.0
Total photons number, Leg (BALB/c mice; 1 μg/ mice, 3 h): 1.41E+08
Total photons number, Leg (BALB/c mice; 1 μg/ mice, 6 h): 2.35E+08
Total photons number, Leg (BALB/c mice; 1 μg/ mice, 24 h): 5.84E+07
Total photons number, Leg (BALB/c mice; 5 μg/mice, 3 h): 5.20E+08
Total photons number, Leg (BALB/c mice; 5 μg/mice, 6 h): 4.62E+08
Total photons number, Leg (BALB/c mice; 5 μg/mice, 24 h): 1.63E+08
Elispot counted T lymphocytes secreting INFγ ([1]; dose 4 μg): 32 and 42
Elispot counted T lymphocytes secreting INFγ ([1]; dose 50 μg): 310 and 338
Encapsulated percentage (%) [2, 4]: 95%
PI [2, 4]: 0.104
Size (nm) [2, 4]: 76 nm
S protein specific IgG antibody titer [3]: higher titers of IgG antibodies

CCCCC/C=C/C/C=C/CCCCCCCCN(CCCO)CCCCCCCC(=O)OC(CCCCCCCC)CCCCCCCC [A7]
Average fluorescence intensity, Leg (intramuscular injection) (BALB/c mice; 3 h after administration): 1683.2
Average fluorescence intensity, Liver (tail vein injection) (BALB/c mice; 3 h after administration): 21013.1
Average fluorescence intensity, Leg (intramuscular injection) (BALB/c mice; 6 h after administration): 2990.1
Average fluorescence intensity, Liver (tail vein injection) (BALB/c mice; 6 h after administration): 21315.5
Average fluorescence intensity, Leg (intramuscular injection) (BALB/c mice; 24 h after administration): 1436.4
Average fluorescence intensity, Liver (tail vein injection) (BALB/c mice; 24 h after administration): 444.2
Elispot counted T lymphocytes secreting INFγ ([1]; dose 50 μg): 805 and 700
Encapsulated percentage (%) [2, 4]: 97%
PI [2, 4]: 0.060
Size (nm) [2, 4]: 79 nm
Size (nm) [2, 5]: 105.1 nm
Encapsulated percentage (%) [2, 6]: 94.63%
PDI [2, 6]: 0.175
S protein specific IgG antibody titer [3]: higher titers of IgG antibodies

CCCCCCOCC(COCCCCCC)OC(=O)CCCCCCCN(CCO)CCCCCCCC(=O)OC(COCCCCCC)COCCCCCC [A18]
Total photons number, Leg (BALB/c mice; 1 μg/ mice, 3 h): 3.91E+09
Total photons number, Leg (BALB/c mice; 1 μg/ mice, 6 h): 4.16E+09
Total photons number, Leg (BALB/c mice; 1 μg/ mice, 24 h): 2.90E+08
Overall pathological changes after the 1200 times higher dosage level of the LNP injection (Wistar rats; 1.50 mg per rat, 1200 times the maximum unit weight dosage level for human): only slight pathological changes in the lungs and legs
Histopathological result, Heart (Wistar rats; [7]): —
Histopathological result, Kidney (Wistar rats; [7]): —
Histopathological result, Liver (Wistar rats; [7]): —
Histopathological result, Lymph nodes (Wistar rats; [7]): —
Histopathological result, Pancreas (Wistar rats; [7]): —
Histopathological result, Spleen (Wistar rats; [7]): —
Histopathological result, Thymus (Wistar rats; [7]): —
Histopathological result, Lung (Wistar rats; H&E, day 14, 1.50 mg per rat, animals 1001 and 1101, cell wraps over three grid rows: Partial stromal cell hyperplasia): Partial
Histopathological result, Muscle tissue (Wistar rats; H&E, day 14, 1.50 mg per rat, injection site, animals 1001 and 1101): —
Body weight change of rats (Wistar rats; empty LNP, 1.50 mg per rat i.m., 14 days, FIGS. 1-2): dropped initially, then recovered to the pre-administration level on Day 4-Day 6, and continued to increase subsequently
Food intake change of rats (Wistar rats; empty LNP, 1.50 mg per rat i.m., 14 days, FIGS. 3-4): decreased initially, and returned to normal levels on Day 4-Day 7
Relative organ weight, Brain (Wistar rats; [8]): 0.687
Relative organ weight, Kidney left (Wistar rats; [8]): 0.351
Relative organ weight, Kidney right (Wistar rats; [8]): 0.356
Relative organ weight, Liver (Wistar rats; [8]): 3.773
Relative organ weight, Lung (Wistar rats; [8]): 0.413
Relative organ weight, Lymph nodes (Wistar rats; [8]): 0.006
Relative organ weight, Spleen (Wistar rats; [8]): 0.250
Relative organ weight, Thymus (Wistar rats; [8]): 0.149
Relative organ weight, Heart (Wistar rats; empty LNP, 1.50 mg per rat i.m., day 14, organ weight/subject weight×100%, average of male, female rat): 0.308
Heart, liver, kidney, spleen, thymus and lymph node coefficients compared with the solvent control group (Wistar rats; [9]): did not show significant difference
Pathological change in the lung (Wistar rats; [9]): proliferation of partial interstitial cells in the lung
Pathological change in the muscle tissue (Wistar rats; [9]): a small amount of inflammatory cell infiltration in the muscle tissue
Pathological changes of heart, liver, kidney, spleen, thymus, and lymph nodes (Wistar rats; empty LNP, 1.50 mg per rat, day 14, compared with solvent control): no pathological changes
Elispot counted T lymphocytes secreting INFγ ([1]; dose 5 μg): 161 and 153
Elispot counted T lymphocytes secreting INFγ ([1]; dose 20 μg): 241 and 251
PDI [2, 10]: 0.088
Size (nm) [2, 10]: 147 nm
Encapsulated percentage (%) [2, 4]: 94%
PI [2, 4]: 0.075
Size (nm) [2, 4]: 86 nm
Size (nm) [2, 5]: 104.8 nm
Encapsulated percentage (%) [2, 6]: 93.58%
PDI [2, 6]: 0.0835
S protein specific IgG antibody titer [3]: higher titers of IgG antibodies

CCCCCCCCCCCOC(=O)CCCCCN(CCCO)CCCCCCCC(=O)OCC(COCCCCCC)(COCCCCCC)COCCCCCC [A22]
Total photons number, Leg (BALB/c mice; 5 μg/mice, 3 h): 4.16E+09
Total photons number, Leg (BALB/c mice; 5 μg/mice, 6 h): 5.74E+09
Total photons number, Leg (BALB/c mice; 5 μg/mice, 24 h): 1.24E+09
Size (nm) [2, 5]: 86.19 nm
Encapsulated percentage (%) [2, 6]: 96.85%
PDI [2, 6]: 0.049

CCCCCCOCC(COCCCCCC)OC(=O)CCCCCCCN(CCCCCCCC(=O)OC(COCCCCCC)COCCCCCC)CCCNc1c(NC)c(=O)c1=O [A28]
Total photons number, Leg (BALB/c mice; 1 μg/ mice, 3 h): 6.50E+08
Total photons number, Leg (BALB/c mice; 1 μg/ mice, 6 h): 4.26E+08
Total photons number, Leg (BALB/c mice; 1 μg/ mice, 24 h): 1.83E+08
Size (nm) [2, 5]: 91.19 nm
Encapsulated percentage (%) [2, 6]: 89.72%
PDI [2, 6]: 0.13

CCCCCCCCCCCOC(=O)CCCCCN(CCO)CCCCCCCC(=O)OCC(COCCCCCC)(COCCCCCC)COCCCCCC [A23]
Total photons number, Leg (BALB/c mice; 5 μg/mice, 3 h): 4.39E+09
Total photons number, Leg (BALB/c mice; 5 μg/mice, 6 h): 2.68E+09
Total photons number, Leg (BALB/c mice; 5 μg/mice, 24 h): 8.00E+08
Size (nm) [2, 5]: 74.63 nm
Encapsulated percentage (%) [2, 6]: 97.41%
PDI [2, 6]: 0.054

CCCCCCCCCCCOC(=O)CCCCCN(CCCO)CCCCCC(=O)OCCCCCCCCCCC [A6]
Average fluorescence intensity, Leg (intramuscular injection) (BALB/c mice; 3 h after administration): 60.3
Average fluorescence intensity, Liver (tail vein injection) (BALB/c mice; 3 h after administration): 11.9
Average fluorescence intensity, Leg (intramuscular injection) (BALB/c mice; 6 h after administration): 40.9
Average fluorescence intensity, Liver (tail vein injection) (BALB/c mice; 6 h after administration): 9.0
Average fluorescence intensity, Leg (intramuscular injection) (BALB/c mice; 24 h after administration): 19.1
Average fluorescence intensity, Liver (tail vein injection) (BALB/c mice; 24 h after administration): 12.2
Size (nm) [2, 5]: 171.5 nm
Encapsulated percentage (%) [2, 6]: 87.09%
PDI [2, 6]: 0.190
